# Source: patent publication US20150148235A1, “HERBICIDE-RESISTANT SUNFLOWER PLANTS WITH MULTIPLE HERBICIDE RESISTANT ALLELES OF AHASL1 AND METHODS OF USE” (NIDERA S.A., priority 2013, published 2015)
# Values joined by “and” are separate entries in the source; they are usually repeats but may differ in a detail not shown here. Equal values may be shown once. Marks after values point to notes of the source that are not given here.
# Tested on: sunflower lines (WT, A122T/A122T, A122T/P197L, P197L/P197L)
# Experiment: Greenhouse whole-plant response to metsulfuron methyl, Example 5
# Assay type: in vivo, Helianthus annuus
# Settings: 14 DAT
# Protocol: Seeds were sown in Petri dishes and, after germination, plantlets were transplanted into 10 cm pots containing potting media consisting of equal parts of vermiculite, soil, and sand. Plants were grown in the greenhouse under natural light conditions supplemented with 400 W sodium halide lamps to provide a 16 hr daylength. Day/night temperatures were 25 and 20° C., respectively. At the V2-V4 stage (Schneiter & Miller, 1981) 20 plants of each genotype were randomly assigned to each treatment consisting of three metsulfuron methyl doses (0 or no treatment, 5 g ai/ha or a 1× rate, and 10 g ai/ha or a 2× rate). A zero-time biomass determination was also conducted. The experiment was arranged as a randomized complete block design (RCBD) with a full factorial arrangement of treatments and 20 replications (sunflower line×treatment).
# For the zero-time dried weight determination, ten plants of each genotype were cut at the cotyledonal node on the day of herbicide application and dried at 60° C. for 48 hr. The rest of the plants were maintained for 14 days after herbicide treatment (DAT) and their height, Phytotoxicity Index (PI) and above ground dry biomass were recorded. Height was determined as the distance between the cotyledonal node and the apex of each plant. The above ground biomass data for each line was converted to biomass accumulation after application by subtracting the appropriate average zero-time biomass from each sample. Height and dry biomass were converted to a percentage of the untreated control for each line to allow direct comparisons between groups.
# The data was subjected to an ANOVA and the means were compared by an LSD test.
# [1] = BTSu-R1 (P197L/P197L), 1X (5 g ai./ha)
# [2] = BTSu-R1 (P197L/P197L), 2X (10 g ai./ha)
# [3] = GM40 (A122T/A122T), 1X (5 g ai./ha)
# [4] = GM40 (A122T/A122T), 2X (10 g ai./ha)
# [5] = GM1606 (A122T/A122T), 1X (5 g ai./ha)
# [6] = GM1606 (A122T/A122T), 2X (10 g ai./ha)
# [7] = L4 (A122T/A122T), 1X (5 g ai./ha)
# [8] = L4 (A122T/A122T), 2X (10 g ai./ha)
# [9] = cmsGM40xBTSu-R1 (A122T/P197L), 1X (5 g ai./ha)
# [10] = cmsGM40xBTSu-R1 (A122T/P197L), 2X (10 g ai./ha)
# [11] = cmsGM40xL4 (A122T/A122T), 1X (5 g ai./ha)
# [12] = cmsGM40xL4 (A122T/A122T), 2X (10 g ai./ha)
structure (smiles),measurement,setting,value
COC(=O)c1ccccc1S(=O)(=O)NC(=O)Nc1nc(C)nc(OC)n1 [metsulfuron],Dry Matter accumulation (DMA),"B770 (WT), 1X (5 g ai./ha)",28.43^b %
same,Phytotoxicity Index (PI) (scale 0-9),"B770 (WT), 1X (5 g ai./ha)",8.50^bc
same,Dry Matter accumulation (DMA),"B770 (WT), 2X (10 g ai./ha)",28.77^b %
same,Mean Height Reduction (PH),"B770 (WT), 2X (10 g ai./ha)",18.20^a %
same,Phytotoxicity Index (PI) (scale 0-9),"B770 (WT), 2X (10 g ai./ha)",9.00^d
same,Dry Matter accumulation (DMA),[1],88% and 88.1% and 88.10^d %
same,Mean Height Reduction (PH),[1],79.01^b %
same,Dry Matter accumulation (DMA),[2],77% and 76.69^c %
same,Mean Height Reduction (PH),[2],80.85^c %
same,Dry Matter accumulation (DMA),[3],25.73^ab %
same,Mean Height Reduction (PH),[3],21.39^a %
same,Phytotoxicity Index (PI) (scale 0-9),[3],9.00^d
same,Dry Matter accumulation (DMA),[4],20.69^a %
same,Mean Height Reduction (PH),[4],21.17^a %
same,Phytotoxicity Index (PI) (scale 0-9),[4],9.00^d
same,Dry Matter accumulation (DMA),[5],30.39^b %
same,Mean Height Reduction (PH),[5],21.55^a %
same,Phytotoxicity Index (PI) (scale 0-9),[5],8.70^d
same,Dry Matter accumulation (DMA),[6],20.45^a %
same,Mean Height Reduction (PH),[6],21.70^a %
same,Phytotoxicity Index (PI) (scale 0-9),[6],9.00^d
same,Dry Matter accumulation (DMA),[7],25.40^ab %
same,Mean Height Reduction (PH),[7],19.47^a %
same,Phytotoxicity Index (PI) (scale 0-9),[7],8.25^b
same,Dry Matter accumulation (DMA),[8],18.80^a %
same,Mean Height Reduction (PH),[8],18.73^a %
same,Phytotoxicity Index (PI) (scale 0-9),[8],8.5^c
same,Dry Matter accumulation (DMA),[9],74.4% and 74.36^c %
same,Mean Height Reduction (PH),[9],77.04^b %
same,Phytotoxicity Index (PI) (scale 0-9),[9],0.00^a
same,Dry Matter accumulation (DMA),[10],72.66^c %
same,Mean Height Reduction (PH),[10],62% and 61.99^b %
same,Dry Matter accumulation (DMA),[11],19.90^a %
same,Mean Height Reduction (PH),[11],22.45^a %
same,Phytotoxicity Index (PI) (scale 0-9),[11],8.67 ^d
same,Dry Matter accumulation (DMA),[12],18.23^a %
same,Mean Height Reduction (PH),[12],20.56^a %
same,Phytotoxicity Index (PI) (scale 0-9),[12],8.82^cd
